Test results as given in patent US6150414A, “Compositions and methods for treating viral infections” (priority 1992, dated 2000).
Where “and” joins values, the source holds several entries; their conditions need not be identical. Equal entries are not always repeated. Where two headings read alike, the source gives them in different places.

Assays:
Friend Leukemia Virus [1] = experiment: Inhibition of Friend Leukemia Virus-induced splenomegaly in mice, compounds intraperitoneally 24 hours after virus (Example 1(a)); type: in vivo, BALB/c mice; set-up: Actual Spleen Weight / Average Spleen Weight: unit not given here; details: for Actual Spleen Weight: single animal; for inhibition in vivo at 0.1 mg / inhibition in vivo at 0.05 mg / inhibition in vivo at 0.2 mg: Mus musculus, ip; for Pooled Average % Inhibition: pooled over 50, 100, 200, 2 × 100 micrograms
Description: The effects of compositions according to the present invention on infection of mammals with Friend Leukemia Virus (FV) were examined.
Friend Leukemia Virus is an aggressive retrovirus which induces an acute erythroleukemia in sensitive strains of mice such as BALB/c and NIH swiss mice as described in Friend, C. J., Exp. Med. 105: 307-324, 1957; Friend, C. et al. Proc. Natl. Acad. Sci. USA 68: 378-383, 1971; Friend, C. et al. Natl. Cancer Inst. Mongr. 22: 508-552, 1966. The malignant transformation is the result of the combined activities of the Spleen Focus Forming Virus (SFFV) and the ecotropic Murine Friend Leukemia Helper Virus (F-MuLV). The acute erythroleukemia is characterized by hepatosplenomegaly (a marked increase in the size of the spleen and liver) and a severe anemia.
Friend Leukemia Virus was prepared by homogenizing the enlarged spleen of a mouse previously infected with FV, 10 days after intravenous virus injection. The spleen was homogenized in phosphate buffered saline in a volume equal to ten times the weight of the isolated spleen.
(§1) The effects of compositions according to the present invention on the increase in spleen size (splenomegaly) of BALB/c mice (Jackson Labs, Bar Harbor, ME) was examined. In these experiments, the virus (10^6 focus forming units--FFU) was inoculated intravenously and 100 micrograms of the compounds indicated in Table II were administered to the mice intraperitoneally 24 hours later. Each compound was administered once to two mice. The animals were sacrificed ten days later and their spleens weighed.
The present assay has been developed from similar assays using hypericin or pseudohypericin and employing higher numbers of experimental animals per group (e.g. 4 animals). It was discovered however that the specificity and sensitivity of this assay are such that an experimental group of two animals is of more than adequate predictive value.
(§2) As used in Table II (and subsequent Tables of this Example l(a) and (b), "average percent inhibition" is calculated as follows: [formula] wherein "ASWNC" designates "average spleen weight of negative control"; "ASWE" designates "average spleen weight of experimental (treated) subject"; and "ASWPC" designates "average spleen weight of positive control". Average spleen weight is the numerical average of spleen weights of each experimental group (in Table II each such group includes two members).
In these experiments, the virus (10^6 focus forming units--FFU) was inoculated intravenously, and the indicated doses of the antiviral compounds of this invention were administered to the BALB/c mice intraperitoneally 24 hours later. The animals were then sacrificed ten days later and their spleens weighed.
Pseudohypericin was diluted in phosphate buffered saline with 1% ethanol.
An expanded series of experiments was next performed in which various concentrations (i.e. 50, 100, 200 and 2×100, i.e., 100 micrograms administered twice) of a different set of PAC compounds (numbers 16-29 and 30-36 in Table III below) were administered intraperitoneally each according to the same protocol described above. Compounds 16-29 all had 3-5 fused, aromatic rings and no side groups except for oxygen or hydroxyl groups, whereas compounds 30-36 all had 3 fused aromatic rings and side chains selected from the group of oxygen, hydroxyl and methyl.
When 2 doses of the compounds were given, the second dose was administered 24-48 hours after the first injection. The animals were infected and splenomegaly determined as above for the compounds in Table II. In Table III, "pooled average percent inhibition" is calculated by adding the average percent inhibition for each experiment with the same compound and dividing the sum by the number of experiments (i.e. the number 4). […]

Friend Leukemia Virus [2] = experiment: FV-induced splenomegaly, PAC compounds in combination with AZT (Example 1(b)); type: in vivo, BALB/c mice; set-up: Spleen weight / Average Spleen Weight: unit not given here; details: for Spleen weight: single animal
Description: as §1, §2
The compounds of the present invention (100 micrograms per mouse) were also tested in combination with AZT (20 micrograms per mouse, twice a day) using otherwise the same methods as in Example 1(a) above. As representatives, compound #9 above (3-bromophenanthro (3,4-C), phenanthrene) and compound #10 (diindeno (1, 2, 3-CD/1', 2', 3'-IM) Perylene) were chosen. […] The compounds were administered i.p. either once or five times (once per day) alone or together with AZT (20 micrograms of AZT per mouse twice a day for five days?). Thus, in experiments where AZT was administered five times, a total of […] of AZT was received by each mouse (with a total of 500 micrograms of the PAC compound).

retroviruses (virions) = experiment: Direct inactivation of retroviruses (virions) in vitro (Example 10); type: biochemical, Radiation Leukemia Virus; details: Table IX
Description: Supernatants (10 ml/tube) from B10.T(6R) cells (Meruelo et al. J. Exp. Med. 147: 470-487, 1978) chronically infected with Radiation Leukemia Virus (RadLV) were obtained by centrifugation of cells in culture at 4° C., 3500 rpm for 15 minutes. The top 2/3 of the supernatant were removed and aliquots were incubated for 30 minutes on ice with the indicated amounts of hypericin or protohypericin. […] Thereafter, supernatants were centrifuged at 100,000×g using a TI70 rotor (Beckman Instruments) for 1 hour at 4° C. The pellet was […] and analyzed for reverse transcriptase activity as follows.
The reverse transcriptase assay was performed in a volume of 100 microliters containing the following components:
(1) Direct inactivation of retroviruses in vitro, performed as in Example 3 above;
The results presented above in Table IX are presented as EC50 concentrations. These are the effective concentrations which inhibit 50% of the viruses in micromolar concentrations.

[3] = 100 micrograms i.p. once, 24 h after FV, Table II
[4] = 1X, 100 micrograms per mouse i.p.
[5] = 5X, 100 micrograms per mouse i.p. once per day
[6] = read-out: Average Perdosage % Inhibition, dose 2 × 100 (micrograms) i.p., Table III
[7] = read-out: Average Perdosage % Inhibition, dose 50 (micrograms) i.p., Table III
[8] = read-out: Average Perdosage % Inhibition, dose 100 (micrograms) i.p., Table III
[9] = read-out: Average Perdosage % Inhibition, dose 200 (micrograms) i.p., Table III
[10] = dose 2 × 100 (micrograms) i.p., Table III
[11] = dose 50 (micrograms) i.p., Table III
[12] = dose 100 (micrograms) i.p., Table III
[13] = dose 200 (micrograms) i.p., Table III
[14] = dose 2 × 100 (micrograms) i.p., Table III, read-out: Average Perdosage % Inhibition
[15] = dose 50 (micrograms) i.p., Table III, read-out: Average Perdosage % Inhibition
[16] = dose 100 (micrograms) i.p., Table III, read-out: Average Perdosage % Inhibition
[17] = dose 200 (micrograms) i.p., Table III, read-out: Average Perdosage % Inhibition
[18] = dose 2 × 100 (micrograms) i.p., second dose 24-48 hours later, Table III

Molecule	inhibition in vivo at 0.1 mg (Friend Leukemia Virus [1]; [6]) [%]	inhibition in vivo at 0.05 mg (Friend Leukemia Virus [1]; [7]) [%]	inhibition in vivo at 0.1 mg (Friend Leukemia Virus [1]; [8]) [%]	inhibition in vivo at 0.2 mg (Friend Leukemia Virus [1]; [9]) [%]	Average Spleen Weight (Friend Leukemia Virus [1]; [10])	Average Spleen Weight (Friend Leukemia Virus [1]; [11])	Average Spleen Weight (Friend Leukemia Virus [1]; [12])	Average Spleen Weight (Friend Leukemia Virus [1]; [13])	Pooled Average % Inhibition (Friend Leukemia Virus [1]; Table III) [%]	inhibition in vivo at 0.1 mg (Friend Leukemia Virus [1]; [14]) [%]	inhibition in vivo at 0.05 mg (Friend Leukemia Virus [1]; [15]) [%]	inhibition in vivo at 0.1 mg (Friend Leukemia Virus [1]; [16]) [%]	inhibition in vivo at 0.2 mg (Friend Leukemia Virus [1]; [17]) [%]	also measured
Brc1cc2ccc3ccc4ccccc4c3c2c2c1ccc1ccccc12 [Compound 9, 3-Bromophenanthro(3,4-C)Phenanthrene]														Average Spleen Weight (Friend Leukemia Virus [1]; [3]): 0.8756; inhibition of FV-induced splenomegaly / anti-retroviral activity (Friend Leukemia Virus [1]; Example 1(a)): weak anti-retroviral activity; % Inhibition (Friend Leukemia Virus [2]; [4]): 3%; Average Spleen Weight (Friend Leukemia Virus [2]; [4]): 2.1074; Spleen weight (Friend Leukemia Virus [2]; [4]): 2.0831 and 2.1317; % Inhibition (Friend Leukemia Virus [2]; [5]): 24%; Average Spleen Weight (Friend Leukemia Virus [2]; [5]): 1.681; Spleen weight (Friend Leukemia Virus [2]; [5]): 1.6262 and 1.7363
c1ccc2c(c1)-c1ccc3c4ccc5c6c(ccc(c7ccc-2c1c37)c64)-c1ccccc1-5 [Compound 10, Diindeno(1,2,3-CD/1',2',3'-IM)Perylene]														Average % Inhibition (Friend Leukemia Virus [1]; [3]): 44.3%; Average Spleen Weight (Friend Leukemia Virus [1]; [3]): 0.4767; Average % Inhibition (Friend Leukemia Virus [1]; 100 micrograms i.p. once, 24 h after FV, Table II, listed as #10): > 40%; Actual Spleen Weight (Friend Leukemia Virus [1]; [3]): 0.4809 and 0.4724; % Inhibition (Friend Leukemia Virus [2]; [4]): 22%; Average Spleen Weight (Friend Leukemia Virus [2]; [4]): 1.724; Spleen weight (Friend Leukemia Virus [2]; [4]): 1.7816 and 1.6664; % Inhibition (Friend Leukemia Virus [2]; [5]): 46%; Average Spleen Weight (Friend Leukemia Virus [2]; [5]): 1.2358; Spleen weight (Friend Leukemia Virus [2]; [5]): 1.5771 and 0.8945
Cc1ccc2cc3ccccc3cc2c1 [Compound 25, 2-Methylanthracene]	29	26	37	28	1.1758	1.2104	1.0606	1.1904	30					
c1ccc(C2=C(c3ccccc3)C(c3ccccc3)=C(c3ccccc3)C2)cc1 [Compound 26, 1,2,3,4-Tetraphenyl-1,3-cyclopentadiene]					1.5966	1.1985	1.0280	1.1131	25	0	27	39	33	
c1cc2cccc3c4cccc5cccc(c(c1)c23)c54 [Compound 27, Perylene]	11	19	5	1	1.4342	1.3148	1.5227	1.6044	9					
c1ccc2cc3cc4cc5ccccc5cc4cc3cc2c1 [Compound 28, Pentacene]					1.4102	1.2780	1.5384	1.4278	12	13	22	4	11	
C=Cc1c2ccccc2cc2ccccc12 [Compound 29, 9-Vinylanthracene]	15	4	26	21	1.3747	1.6517	1.2199	1.2933	14					Actual Spleen Weight (Friend Leukemia Virus [1]; [18]): 1.3747; Actual Spleen Weight (Friend Leukemia Virus [1]; [13]): 1.2933
O=c1c2ccccc2oc2ccccc12 [Compound 31, Xanthone]	62	57	58	60	0.9003	1.0006	0.9806	0.9431	59					
O=C1c2ccc(O)cc2C(=O)c2ccc(O)cc21 [Compound 32, Anthraflavic acid]					0.9325	1.5718	1.1542	0.8593	50	60	26	49	64	
O=C1c2ccccc2C(=O)C1c1ccccc1 [Compound 33, 2-phenyl-1,2 inadione]					0.9127	0.9410	1.7763	0.7938	51	61	60	16	68	
Cc1cc(O)c2c(c1)C(=O)c1cc(O)cc(O)c1C2=O [Compound 34, Emodin]					1.2834	1.2914	1.1333	1.6902	38	42	41	50	20	EC50 (retroviruses (virions)): > 37 µM
Phenylanthracene [Compound 18]					1.2169	1.1803	1.554	1.3296	19					Actual Spleen Weight (Friend Leukemia Virus [1]; [18]): 1.4116 and 1.0222; Average Perdosage % Inhibition (Friend Leukemia Virus [1]; [10]): 26%; Average Perdosage % Inhibition (Friend Leukemia Virus [1]; [11]): 28%; Actual Spleen Weight (Friend Leukemia Virus [1]; [11]): 1.1141 and 1.2464; Average Perdosage % Inhibition (Friend Leukemia Virus [1]; [12]): 3%; Actual Spleen Weight (Friend Leukemia Virus [1]; [12]): 1.6206 and 1.4902; Average Perdosage % Inhibition (Friend Leukemia Virus [1]; [13]): 18%; Actual Spleen Weight (Friend Leukemia Virus [1]; [13]): 1.3797 and 1.2794
